Assay results: ChEMBL document CHEMBL1201861, “Genomics of Drug Sensitity in Cancer screening data, Wellcome Trust Sanger Institute”

How the values were obtained:
Experiment in all cases: cells
Conditions in all cases: Homo sapiens
[1] = tested on: COLO-824; type: functional, cell-based
Description: SANGER: Inhibition of human COLO-824 cell growth in a cell viability assay.

[2] = tested on: COR-L88; type: functional, cell-based;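 further: growth inhibition of COR-L88 cells, read out with a cell viability assay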
Description: SANGER: Inhibition of human COR-L88 cell growth in a cell viability assay.

[3] = tested on: CTV-1; type: functional, cell-based;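 further: growth inhibition of the cell line, read out with a cell viability assay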
Description: SANGER: Inhibition of human CTV-1 cell growth in a cell viability assay.

[4] = tested on: D-263MG; type: functional, cell-based
Description: SANGER: Inhibition of human D-263MG cell growth in a cell viability assay.

[5] = tested on: DOHH-2; type: functional, cell-based;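 further: growth inhibition of human DOHH-2 cells, read out with a cell viability assay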
Description: SANGER: Inhibition of human DOHH-2 cell growth in a cell viability assay.

[6] = tested on: DSH1; type: functional, cell-based;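 further: growth inhibition of human DSH1 cells, measured with a cell viability readout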
Description: SANGER: Inhibition of human DSH1 cell growth in a cell viability assay.

[7] = tested on: ES4; type: functional, cell-based;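 further: growth inhibition of human ES4 cells, read out by a cell viability assay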
Description: SANGER: Inhibition of human ES4 cell growth in a cell viability assay.

[8] = tested on: ES5; type: functional, cell-based;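 further: growth inhibition of human ES5 cells, read out by a cell viability assay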
Description: SANGER: Inhibition of human ES5 cell growth in a cell viability assay.

[9] = tested on: ETK-1; type: functional, cell-based;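 further: growth inhibition of human ETK-1 cells, read out with a cell viability assay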
Description: SANGER: Inhibition of human ETK-1 cell growth in a cell viability assay.

[10] = tested on: EW-1; type: functional, cell-based;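 further: growth inhibition of the human EW-1 cell line, read out by a cell viability assay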
Description: SANGER: Inhibition of human EW-1 cell growth in a cell viability assay.

[11] = tested on: EW-13; type: functional, cell-based;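 further: growth inhibition of EW-13 cells, read out with a cell viability assay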
Description: SANGER: Inhibition of human EW-13 cell growth in a cell viability assay.

[12] = tested on: GT3TKB; type: functional, cell-based;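 further: growth inhibition of the cell line, read out with a cell viability assay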
Description: SANGER: Inhibition of human GT3TKB cell growth in a cell viability assay.

[13] = tested on: HEL; type: functional, cell-based;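 further: growth inhibition of HEL cells, read out with a cell viability assay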
Description: SANGER: Inhibition of human HEL cell growth in a cell viability assay.

[14] = tested on: HL-60; type: functional, cell-based;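 further: growth inhibition of human HL-60 cells, read out with a cell viability assay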
Description: SANGER: Inhibition of human HL-60 cell growth in a cell viability assay.

[15] = tested on: HuTu80; type: functional, cell-based, HUTU-80;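 further: growth inhibition of HuTu80 human cells, determined with a cell viability readout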
Description: SANGER: Inhibition of human HUTU-80 cell growth in a cell viability assay.

[16] = tested on: IST-MEL1; type: functional, cell-based;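 further: growth inhibition of the cell line, read out with a cell viability assay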
Description: SANGER: Inhibition of human IST-MEL1 cell growth in a cell viability assay.

[17] = tested on: JAR; type: functional, cell-based;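 further: growth inhibition of human JAR cells determined with a cell viability assay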
Description: SANGER: Inhibition of human JAR cell growth in a cell viability assay.

[18] = tested on: KARPAS-45; type: functional, cell-based;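 further: inhibition of cell line growth, read out through a viability assay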
Description: SANGER: Inhibition of human KARPAS-45 cell growth in a cell viability assay.

[19] = tested on: KE-37; type: functional, cell-based;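 further: growth inhibition of KE-37 cells, read out with a cell viability assay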
Description: SANGER: Inhibition of human KE-37 cell growth in a cell viability assay.

[20] = tested on: KM-H2; type: functional, cell-based;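 further: growth inhibition of KM-H2 cells, read out by a cell viability assay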
Description: SANGER: Inhibition of human KM-H2 cell growth in a cell viability assay.

[21] = tested on: KM12; type: functional, cell-based;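 further: KM12 cell growth inhibition, read out with a cell viability assay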
Description: SANGER: Inhibition of human KM12 cell growth in a cell viability assay.

[22] = tested on: KMOE-2; type: functional, cell-based;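 further: growth inhibition of human KMOE-2 cells, read out with a cell viability assay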
Description: SANGER: Inhibition of human KMOE-2 cell growth in a cell viability assay.

[23] = tested on: KNS-42; type: functional, cell-based;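 further: growth inhibition of KNS-42 cells, read out with a cell viability assay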
Description: SANGER: Inhibition of human KNS-42 cell growth in a cell viability assay.

[24] = tested on: KS-1; type: functional, cell-based;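 further: growth inhibition of KS-1 cells, read out with a cell viability assay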
Description: SANGER: Inhibition of human KS-1 cell growth in a cell viability assay.

[25] = tested on: KY821; type: functional, cell-based;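 further: growth inhibition of human KY821 cells, read out by a cell viability assay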
Description: SANGER: Inhibition of human KY821 cell growth in a cell viability assay.

[26] = tested on: L-428; type: functional, cell-based
Description: SANGER: Inhibition of human L-428 cell growth in a cell viability assay.

[27] = tested on: LAMA-84; type: functional, cell-based;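 further: growth inhibition of LAMA-84 cells, read out with a cell viability assay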
Description: SANGER: Inhibition of human LAMA-84 cell growth in a cell viability assay.

[28] = tested on: LB1047-RCC; type: functional, cell-based;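 further: inhibition of cell growth, determined with a cell viability assay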
Description: SANGER: Inhibition of human LB1047-RCC cell growth in a cell viability assay.

[29] = tested on: LB831-BLC; type: functional, cell-based;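 further: growth inhibition of LB831-BLC cells, read out with a cell viability assay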
Description: SANGER: Inhibition of human LB831-BLC cell growth in a cell viability assay.

[30] = tested on: LNCaP-Clone-FGC; type: functional, cell-based
Description: SANGER: Inhibition of human LNCaP-Clone-FGC cell growth in a cell viability assay.

[31] = tested on: LXF-289 cell line; type: functional, cell-based
Description: SANGER: Inhibition of human LXF-289 cell growth in a cell viability assay.

[32] = tested on: MEG-01; type: functional, cell-based;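 further: growth inhibition of MEG-01 cells, read out by a cell viability assay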
Description: SANGER: Inhibition of human MEG-01 cell growth in a cell viability assay.

[33] = tested on: MFM-223; type: functional, cell-based
Description: SANGER: Inhibition of human MFM-223 cell growth in a cell viability assay.

[34] = tested on: MHH-NB-11; type: functional, cell-based;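 further: growth inhibition of human MHH-NB-11 cells, read out by a cell viability assay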
Description: SANGER: Inhibition of human MHH-NB-11 cell growth in a cell viability assay.

[35] = tested on: MMAC-SF; type: functional, cell-based;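 further: growth inhibition of human MMAC-SF cells, read out with a cell viability assay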
Description: SANGER: Inhibition of human MMAC-SF cell growth in a cell viability assay.

[36] = tested on: MN-60; type: functional, cell-based;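 further: growth inhibition of the MN-60 cell line, determined with a cell viability assay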
Description: SANGER: Inhibition of human MN-60 cell growth in a cell viability assay.

[37] = tested on: MOLT-16; type: functional, cell-based;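 further: growth inhibition of human MOLT-16 cells, read out with a cell viability assay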
Description: SANGER: Inhibition of human MOLT-16 cell growth in a cell viability assay.

[38] = tested on: Mo; type: functional, cell-based
Description: SANGER: Inhibition of human Mo-T cell growth in a cell viability assay.

[39] = tested on: NCI-H1304; type: functional, cell-based;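 further: growth inhibition of the cancer cell line, measured in a cell viability assay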
Description: SANGER: Inhibition of human NCI-H1304 cell growth in a cell viability assay.

[40] = tested on: NCI-H82; type: functional, cell-based;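 further: growth inhibition of NCI-H82 cells, measured with a cell viability readout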
Description: SANGER: Inhibition of human NCI-H82 cell growth in a cell viability assay.

[41] = tested on: SNU-5; type: functional, cell-based;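 further: cell viability readout used to measure growth inhibition in human NCI-SNU-5 cells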
Description: SANGER: Inhibition of human NCI-SNU-5 cell growth in a cell viability assay.

[42] = tested on: NOMO-1; type: functional, cell-based;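 further: growth inhibition of human NOMO-1 cells measured by a cell viability assay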
Description: SANGER: Inhibition of human NOMO-1 cell growth in a cell viability assay.

[43] = tested on: NTERA-2-cl-D1; type: functional, cell-based;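 further: inhibition of cell growth, measured with a cell viability assay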
Description: SANGER: Inhibition of human NTERA-S-cl-D1 cell growth in a cell viability assay.

[44] = tested on: OCUB-M; type: functional, cell-based;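 further: growth inhibition of the cancer cell line, read out through a cell viability assay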
Description: SANGER: Inhibition of human OCUB-M cell growth in a cell viability assay.

[45] = tested on: OS-RC-2; type: functional, cell-based;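 further: growth inhibition of human OS-RC-2 cells, measured by a cell viability assay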
Description: SANGER: Inhibition of human OS-RC-2 cell growth in a cell viability assay.

[46] = tested on: RCC10RGB; type: functional, cell-based;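 further: growth inhibition of human RCC10RGB cells, read out by a cell viability assay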
Description: SANGER: Inhibition of human RCC10RGB cell growth in a cell viability assay.

[47] = tested on: RH-1; type: functional, cell-based;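 further: growth inhibition of human RH-1 cells, read out with a cell viability assay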
Description: SANGER: Inhibition of human RH-1 cell growth in a cell viability assay.

[48] = tested on: SCH; type: functional, cell-based;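 further: growth inhibition of human SCH cells, read out in a cell viability assay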
Description: SANGER: Inhibition of human SCH cell growth in a cell viability assay.

[49] = tested on: SK-LMS-1; type: functional, cell-based;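 further: growth inhibition of human SK-LMS-1 cells, read out with a cell viability assay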
Description: SANGER: Inhibition of human SK-LMS-1 cell growth in a cell viability assay.

[50] = tested on: SK-UT-1; type: functional, cell-based;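 further: growth inhibition of SK-UT-1 cells, measured by a cell viability assay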
Description: SANGER: Inhibition of human SK-UT-1 cell growth in a cell viability assay.

[51] = tested on: 8-MG-BA; type: functional, cell-based;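 further: growth inhibition of 8-MG-BA cells, read out with a cell viability assay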
Description: SANGER: Inhibition of human 8-MG-BA cell growth in a cell viability assay.

[52] = tested on: A3-KAW; type: functional, cell-based;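 further: growth inhibition of human A3-KAW cells, read out with a cell viability assay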
Description: SANGER: Inhibition of human A3-KAW cell growth in a cell viability assay.

[53] = tested on: A388; type: functional, cell-based;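 further: growth inhibition of human A388 cells, read out with a cell viability assay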
Description: SANGER: Inhibition of human A388 cell growth in a cell viability assay.

[54] = tested on: A498; type: functional, cell-based;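 further: growth inhibition of human A498 cells, read out with a cell viability assay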
Description: SANGER: Inhibition of human A498 cell growth in a cell viability assay.

[55] = tested on: A704; type: functional, cell-based;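 further: growth inhibition of human A704 cells, read out with a cell viability assay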
Description: SANGER: Inhibition of human A704 cell growth in a cell viability assay.

[56] = tested on: BB49-HNC; type: functional, cell-based
Description: SANGER: Inhibition of human BB49-HNC cell growth in a cell viability assay.

[57] = tested on: BE-13; type: functional, cell-based
Description: SANGER: Inhibition of human BE-13 cell growth in a cell viability assay.

[58] = tested on: BT-474; type: functional, cell-based
Description: SANGER: Inhibition of human BT-474 cell growth in a cell viability assay.

[59] = tested on: BV-173; type: functional, cell-based
Description: SANGER: Inhibition of human BV-173 cell growth in a cell viability assay.

[60] = tested on: C2BBe1; type: functional, cell-based
Description: SANGER: Inhibition of human C2BBe1 cell growth in a cell viability assay.

[61] = tested on: C8166; type: functional, cell-based
Description: SANGER: Inhibition of human C8166 cell growth in a cell viability assay.

[62] = tested on: TE-10; type: functional, cell-based
Description: SANGER: Inhibition of human TE-10 cell growth in a cell viability assay.

[63] = tested on: TE-11; type: functional, cell-based
Description: SANGER: Inhibition of human TE-11 cell growth in a cell viability assay.

[64] = tested on: TE-6; type: functional, cell-based
Description: SANGER: Inhibition of human TE-6 cell growth in a cell viability assay.

[65] = tested on: CCRF-CEM; type: functional, cell-based
Description: SANGER: Inhibition of human CCRF-CEM cell growth in a cell viability assay.

[66] = tested on: COLO-684; type: functional, cell-based
Description: SANGER: Inhibition of human COLO-684 cell growth in a cell viability assay.

Compound: C[C@]12O[C@H](C[C@]1(O)CO)n1c3ccccc3c3c4c(c5c6ccccc6n2c5c31)CNC4=O [LESTAURTINIB]
- IC50 [1]: > 2000 nM
- IC50 [2]: > 2000 nM
- IC50 [3]: 189 nM
- IC50 [4]: 971 nM
- IC50 [5]: 184 nM
- IC50 [6]: 992 nM
- IC50 [7]: 128 nM
- IC50 [8]: 16.5 nM
- IC50 [9]: 856 nM
- IC50 [10]: 1080 nM
- IC50 [11]: > 2000 nM
- IC50 [12]: 389 nM
- IC50 [13]: 204 nM
- IC50 [14]: 149 nM
- IC50 [15]: 649 nM
- IC50 [16]: 196 nM
- IC50 [17]: 9.94 nM
- IC50 [18]: 52.4 nM
- IC50 [19]: 16.8 nM
- IC50 [20]: > 2000 nM
- IC50 [21]: 37.8 nM
- IC50 [22]: 617 nM
- IC50 [23]: > 2000 nM
- IC50 [24]: 375 nM
- IC50 [25]: 159 nM
- IC50 [26]: > 2000 nM
- IC50 [27]: 48.5 nM
- IC50 [28]: 76.9 nM
- IC50 [29]: > 2000 nM
- IC50 [30]: 353 nM
- IC50 [31]: 1020 nM
- IC50 [32]: 456 nM
- IC50 [33]: 333 nM
- IC50 [34]: 1110 nM
- IC50 [35]: 72.1 nM
- IC50 [36]: 372 nM
- IC50 [37]: 89.8 nM
- IC50 [38]: > 2000 nM
- IC50 [39]: > 2000 nM
- IC50 [40]: > 2000 nM
- IC50 [41]: > 2000 nM
- IC50 [42]: 149 nM
- IC50 [43]: 363 nM
- IC50 [44]: > 2000 nM
- IC50 [45]: 566 nM
- IC50 [46]: > 2000 nM
- IC50 [47]: 149 nM
- IC50 [48]: > 2000 nM
- IC50 [49]: > 2000 nM
- IC50 [50]: 354 nM
- IC50 [51]: 124 nM
- IC50 [52]: 23.9 nM
- IC50 [53]: > 2000 nM
- IC50 [54]: 221 nM
- IC50 [55]: 967 nM
- IC50 [56]: 1640 nM
- IC50 [57]: 280 nM
- IC50 [58]: > 2000 nM
- IC50 [59]: 369 nM
- IC50 [60]: 361 nM
- IC50 [61]: > 2000 nM
- IC50 [62]: 1480 nM
- IC50 [63]: 609 nM
- IC50 [64]: > 2000 nM
- IC50 [65]: > 2000 nM
- IC50 [66]: 853 nM

Compound: CCNC(=O)c1noc(-c2cc(C(C)C)c(O)cc2O)c1-c1ccc(CN2CCOCC2)cc1 [LUMINESPIB]
- IC50 [1]: 110 nM
- IC50 [2]: 171 nM
- IC50 [3]: 41.2 nM
- IC50 [4]: 56.8 nM
- IC50 [5]: 186 nM
- IC50 [6]: 62.7 nM
- IC50 [7]: 15 nM
- IC50 [8]: > 256 nM
- IC50 [9]: 28.1 nM
- IC50 [10]: 28.2 nM
- IC50 [11]: 5.18 nM
- IC50 [12]: 12 nM
- IC50 [13]: 38.9 nM
- IC50 [14]: 18.1 nM
- IC50 [15]: 20 nM
- IC50 [16]: 8.52 nM
- IC50 [17]: > 256 nM
- IC50 [18]: 93.5 nM
- IC50 [19]: 56.8 nM
- IC50 [20]: 72.4 nM
- IC50 [21]: 14 nM
- IC50 [22]: 57.5 nM
- IC50 [23]: > 256 nM
- IC50 [24]: 8.59 nM
- IC50 [25]: > 256 nM
- IC50 [26]: 77 nM
- IC50 [27]: 41.7 nM
- IC50 [28]: 50.3 nM
- IC50 [29]: 32.2 nM
- IC50 [30]: 81.7 nM
- IC50 [31]: 26.7 nM
- IC50 [32]: 173 nM
- IC50 [33]: > 256 nM
- IC50 [34]: 254 nM
- IC50 [35]: 43 nM
- IC50 [36]: 242 nM
- IC50 [37]: 17.9 nM
- IC50 [38]: > 256 nM
- IC50 [39]: 82.7 nM
- IC50 [40]: > 256 nM
- IC50 [41]: > 256 nM
- IC50 [42]: 71.7 nM
- IC50 [43]: 13.4 nM
- IC50 [44]: 39.6 nM
- IC50 [45]: 34 nM
- IC50 [46]: > 256 nM
- IC50 [47]: 62.3 nM
- IC50 [48]: > 256 nM
- IC50 [49]: 4.58 nM
- IC50 [50]: 32.2 nM
- IC50 [51]: 18.8 nM
- IC50 [52]: 227 nM
- IC50 [53]: 21.2 nM
- IC50 [54]: > 256 nM
- IC50 [55]: > 256 nM
- IC50 [56]: 10.8 nM
- IC50 [57]: > 256 nM
- IC50 [58]: 70.6 nM
- IC50 [59]: 34.3 nM
- IC50 [60]: 199 nM
- IC50 [61]: 11.3 nM
- IC50 [62]: 19.8 nM
- IC50 [63]: 200 nM
- IC50 [64]: 246 nM
- IC50 [65]: 23.3 nM
- IC50 [66]: 81.6 nM
